Results published in a compilation of properties of binary mixtures (doi:10.1007/s10953-023-01246-7).

Experiment: xn = mol fraction of the nth substance listed
Settings: 100 kPa

CCOS(=O)(=O)[O-].CC[n+]1ccn(C)c1 + OCCO
viscosity [mPa·s]
Settings	x1 = 0.1003	x1 = 0.1982	x1 = 0.2999	x1 = 0.4002	x1 = 0.5005	x1 = 0.5992	x1 = 0.6994	x1 = 0.8001	x1 = 0.8993
293.15 K	–	17.96	–	25.17	32.09	40.31	54.7	70.3	99.9
298.15 K	14.75	15.08	17.32	21.18	26.88	33.49	44.9	56.9	78.4
303.15 K	12.28	12.75	14.69	17.95	22.71	–	–	46.47	62.8
308.15 K	10.4	–	–	15.42	19.35	23.73	31.11	38.47	51.2
313.15 K	8.88	–	10.94	13.31	16.65	20.23	26.27	32.2	42.22
318.15 K	7.67	–	9.49	–	14.46	17.49	22.38	–	–
323.15 K	–	7.16	8.38	10.19	12.56	15.18	19.32	23.28	29.87
328.15 K	5.8	6.26	7.45	9.03	11.07	13.32	16.79	20.18	25.55
333.15 K	–	–	6.62	8.07	–	11.79	14.74	17.49	22.02
338.15 K	4.53	4.97	5.94	7.19	8.77	–	13.02	15.39	19.13
343.15 K	4.03	4.47	5.33	6.46	–	–	11.55	–	16.8
